Laboratory results published in US11312693B2, “Protease inhibitors” (MEDIVIR AB, priority 2008, dated 2022).

Columns and labels:
[1] = Metabolic stability in whole blood; type: in vitro ADME; conditions: from CLint
Description: Compounds of the invention and the indicated comparative examples were tested for metabolic stability in a cytosol assay in which the compounds were incubated with commercially available human hepatic cytosol fractions and the disappearance of the compound monitored by HPLC or LC/MS. Pooled human liver cytosol fractions are less likely to represent outlier individuals than blood from a single individual and can be stored frozen, unlike whole blood. The cytosol assay thus provides a consistent assay testbed as a guide to the stability of a compound in the in vivo environment, such as when exposed to whole blood.
In short, test compounds (2 μM) are incubated in pooled human liver cytosol (Xenotech LLC Lenexa US, 1 mg/mL protein in 0.1M phosphate buffer, pH 7.4) at 37° centigrade over a one hour period. The incubations are initiated by the addition of 1 mM NADPH co-factor. Timed sub-samples were taken at 0, 20, 40 and 60 minutes and “crash precipitated” by the addition of 3 volumes of ice-cold acetonitrile. The samples were centrifuged at reduced temperature and the supernatants were separated and analyzed by LC-MS-MS.
Alternatively, an analogous stability assay is carried out in human or monkey whole blood and/or commercially available liver microsomes, such as XEN 025.

[2] = In vivo mouse PK, oral administration (FIG. 1); design: species or system male C57BI mice; conditions: 60 μmol/kg in 1% Methocel A4C, versus Example 2 of WO2008 007107
From the text: FIG. 1 depicts plasma concentration against time for male C57BI mice orally administered a compound of the invention or a compound of the prior art.
Various embodiments of the invention will now be described by way of illustration only with reference to the following Examples and FIG. 1 which depicts plasma concentration against time for male C57BI mice orally administered a compound of the invention or a compound of the prior art.

estimated / calculated whole blood half life [1]	in vivo exposure (whether measured as Cmax or AUC) [2]	Structure (SMILES)
little over an hour	–	CC(C)C[C@H](NC(=O)c1ccc(-c2csc(N3CCN(C)CC3)n2)cc1)C(=O)N1C[C@@H](C)[C@H]2OCC(=O)[C@H]21 [comparative example]
–	very much greater	C#C[C@@H]1CN(C(=O)[C@H](CC(C)C)NC(=O)c2ccc(-c3nc(N4CCN(C)CC4)sc3F)cc2)[C@@H]2C(=O)CO[C@H]12 [Example 2, N-[1-6-(ethynyl-3-oxo-hexahydro-furo[3,2-b]pyrrole-4-carbonyl)-3-methyl-butyl]-4-[5-fluoro-2-(4-methyl-piperazin-1-yl)thiazol-4-yl]-benzamide]
